Laboratory results published in ChEMBL document CHEMBL2396621, “Design, synthesis and biological evaluation of 2-mercapto-3-phenethylquinazoline bearing anilide fragments as potential antitumor agents: molecular docking study” (2013).

Columns and labels:
Type in all cases: functional
OVCAR-8 = test: Cytotoxicity against human OVCAR8 cells assessed as growth inhibition at 10 uM after 48 hrs by coulter counter analysis; details: OVCAR-8, 48 h, read-out: GI
A498 = test: Cytotoxicity against human A498 cells assessed as growth inhibition at 10 uM after 48 hrs by coulter counter analysis; details: A498, 48 h, read-out: GI
A549 = test: Cytotoxicity against human A549 cells assessed as growth inhibition at 10 uM after 48 hrs by coulter counter analysis; details: A549, 48 h, read-out: GI
[1] = Cytotoxicity against human NCI-ADR-RES cells assessed as growth inhibition at 10 uM after 48 hrs by coulter counter analysis; details: read-out: GI
SF-539 = test: Cytotoxicity against human SF539 cells assessed as growth inhibition at 10 uM after 48 hrs by coulter counter analysis; details: SF-539, 48 h, read-out: GI
MDA-MB-435 = test: Cytotoxicity against human MDA-MB-435 cells assessed as growth inhibition at 10 uM after 48 hrs by coulter counter analysis; details: MDA-MB-435, 48 h, read-out: GI
OVCAR-3 = test: Cytotoxicity against human OVCAR3 cells assessed as growth inhibition at 10 uM after 48 hrs by coulter counter analysis; details: OVCAR-3, 48 h, read-out: GI
UO-31 = test: Cytotoxicity against human UO31 cells assessed as growth inhibition at 10 uM after 48 hrs by coulter counter analysis; details: UO-31, 48 h, read-out: GI
SNB-75 = test: Cytotoxicity against human SNB75 cells assessed as growth inhibition at 10 uM after 48 hrs by coulter counter analysis; details: SNB-75, 48 h, read-out: GI
NCI-H460 = test: Cytotoxicity against human NCI-H460 cells assessed as growth inhibition at 10 uM after 48 hrs by coulter counter analysis; details: NCI-H460, 48 h, read-out: GI
HCT-15 = test: Cytotoxicity against human HCT15 cells assessed as growth inhibition at 10 uM after 48 hrs by coulter counter analysis; details: HCT-15, 48 h, read-out: GI
BT-549 = test: Cytotoxicity against human BT549 cells assessed as growth inhibition at 10 uM after 48 hrs by coulter counter analysis; details: BT-549, 48 h, read-out: GI
CAKI-1 = test: Cytotoxicity against human Caki1 cells assessed as growth inhibition at 10 uM after 48 hrs by coulter counter analysis; details: CAKI-1, 48 h, read-out: GI
COLO 205 = test: Cytotoxicity against human COLO205 cells assessed as growth inhibition at 10 uM after 48 hrs by coulter counter analysis; details: COLO 205, 48 h, read-out: GI
TK-10 = test: Cytotoxicity against human TK10 cells assessed as growth inhibition at 10 uM after 48 hrs by coulter counter analysis; details: TK-10, 48 h, read-out: GI
OVCAR-5 = test: Cytotoxicity against human OVCAR5 cells assessed as growth inhibition at 10 uM after 48 hrs by coulter counter analysis; details: OVCAR-5, 48 h, read-out: GI
LOX IMVI = test: Cytotoxicity against human LOXIMVI cells assessed as growth inhibition at 10 uM after 48 hrs by coulter counter analysis; details: read-out: GI
PC-3 = test: Cytotoxicity against human PC3 cells assessed as growth inhibition at 10 uM after 48 hrs by coulter counter analysis; details: PC-3, 48 h, read-out: GI
UACC-257 = test: Cytotoxicity against human UACC257 cells assessed as growth inhibition at 10 uM after 48 hrs by coulter counter analysis; details: UACC-257, 48 h, read-out: GI
RXF 393 = test: Cytotoxicity against human RXF393 cells assessed as growth inhibition at 10 uM after 48 hrs by coulter counter analysis; details: RXF 393, 48 h, read-out: GI
DU-145 = test: Cytotoxicity against human DU145 cells assessed as growth inhibition at 10 uM after 48 hrs by coulter counter analysis; details: DU-145, 48 h, read-out: GI
MDA-MB-231 = test: Cytotoxicity against human MDA-MB-231 cells assessed as growth inhibition at 10 uM after 48 hrs by coulter counter analysis; details: MDA-MB-231, 48 h, read-out: GI
MCF7 = test: Cytotoxicity against human MCF7 cells assessed as growth inhibition at 10 uM after 48 hrs by coulter counter analysis; details: MCF7, 48 h, read-out: GI
HCT-116 = test: Cytotoxicity against human HCT116 cells assessed as growth inhibition at 10 uM after 48 hrs by coulter counter analysis; details: HCT-116, 48 h, read-out: GI
KM12 = test: Cytotoxicity against human KM12 cells assessed as growth inhibition at 10 uM after 48 hrs by coulter counter analysis; details: KM12, 48 h, read-out: GI
SK-OV-3 = test: Cytotoxicity against human SKOV3 cells assessed as growth inhibition at 10 uM after 48 hrs by coulter counter analysis; details: SK-OV-3, 48 h, read-out: GI
T47D = test: Cytotoxicity against human T47D cells assessed as growth inhibition at 10 uM after 48 hrs by coulter counter analysis; details: read-out: GI
Malme-3M = test: Cytotoxicity against human MALME-3M cells assessed as growth inhibition at 10 uM after 48 hrs by coulter counter analysis; details: read-out: GI
SF-295 = test: Cytotoxicity against human SF295 cells assessed as growth inhibition at 10 uM after 48 hrs by coulter counter analysis; details: SF-295, 48 h, read-out: GI
IGROV-1 = test: Cytotoxicity against human IGROV1 cells assessed as growth inhibition at 10 uM after 48 hrs by coulter counter analysis; details: IGROV-1, 48 h, read-out: GI
SW-620 = test: Cytotoxicity against human SW620 cells assessed as growth inhibition at 10 uM after 48 hrs by coulter counter analysis; details: SW-620, 48 h, read-out: GI
SNB-19 = test: Cytotoxicity against human SNB19 cells assessed as growth inhibition at 10 uM after 48 hrs by coulter counter analysis; details: SNB-19, 48 h, read-out: GI
786-0 = test: Cytotoxicity against human 786-0 cells assessed as growth inhibition at 10 uM after 48 hrs by coulter counter analysis; details: 786-0, 48 h, read-out: GI
MDA-MB-468 = test: Cytotoxicity against human MDA-MB-468 cells assessed as growth inhibition at 10 uM after 48 hrs by coulter counter analysis; details: MDA-MB-468, 48 h, read-out: GI
SK-MEL-5 = test: Cytotoxicity against human SK-MEL-5 cells assessed as growth inhibition at 10 uM after 48 hrs by coulter counter analysis; details: SK-MEL-5, 48 h, read-out: GI
HCC 2998 = test: Cytotoxicity against human HCC2998 cells assessed as growth inhibition at 10 uM after 48 hrs by coulter counter analysis; details: HCC 2998, 48 h, read-out: GI
NCI-H522 = test: Cytotoxicity against human NCI-H522 cells assessed as growth inhibition at 10 uM after 48 hrs by coulter counter analysis; details: NCI-H522, 48 h, read-out: GI

O=C(CSc1nc2ccccc2c(=O)n1CCc1ccccc1)Nc1ccc(F)cc1
inhibition of growth at 10 µM (OVCAR-8): < 10% | inhibition of growth at 10 µM (A498): 10% | inhibition of growth at 10 µM (A549): 23% | inhibition of growth at 10 µM [1]: < 10% | inhibition of growth at 10 µM (SF-539): < 10% | inhibition of growth at 10 µM (MDA-MB-435): < 10% | inhibition of growth at 10 µM (OVCAR-3): < 10% | inhibition of growth at 10 µM (UO-31): 31% | inhibition of growth at 10 µM (SNB-75): < 10% | inhibition of growth at 10 µM (NCI-H460): < 10% | inhibition of growth at 10 µM (HCT-15): 10% | inhibition of growth at 10 µM (BT-549): 10% | inhibition of growth at 10 µM (CAKI-1): 22% | inhibition of growth at 10 µM (COLO 205): < 10% | inhibition of growth at 10 µM (TK-10): < 10% | inhibition of growth at 10 µM (OVCAR-5): < 10% | inhibition of growth at 10 µM (LOX IMVI): 18% | inhibition of growth at 10 µM (PC-3): 16% | inhibition of growth at 10 µM (UACC-257): < 10% | inhibition of growth at 10 µM (RXF 393): 13% | inhibition of growth at 10 µM (DU-145): < 10% | inhibition of growth at 10 µM (MDA-MB-231): 22% | inhibition of growth at 10 µM (MCF7): 18% | inhibition of growth at 10 µM (HCT-116): 19% | inhibition of growth at 10 µM (KM12): < 10% | inhibition of growth at 10 µM (SK-OV-3): 25% | inhibition of growth at 10 µM (T47D): 25% | inhibition of growth at 10 µM (Malme-3M): 11% | inhibition of growth at 10 µM (SF-295): 13% | inhibition of growth at 10 µM (IGROV-1): 16% | inhibition of growth at 10 µM (SW-620): < 10% | inhibition of growth at 10 µM (SNB-19): < 10% | inhibition of growth at 10 µM (786-0): < 10% | inhibition of growth at 10 µM (MDA-MB-468): 23% | inhibition of growth at 10 µM (SK-MEL-5): 16% | inhibition of growth at 10 µM (HCC 2998): < 10% | inhibition of growth at 10 µM (NCI-H522): 31%

Cc1ccc(NC(=O)CSc2nc3ccccc3c(=O)n2CCc2ccccc2)cc1
inhibition of growth at 10 µM (OVCAR-8): 27% | inhibition of growth at 10 µM (A498): < 10% | inhibition of growth at 10 µM (A549): 21% | inhibition of growth at 10 µM [1]: < 10% | inhibition of growth at 10 µM (SF-539): 19% | inhibition of growth at 10 µM (MDA-MB-435): 17% | inhibition of growth at 10 µM (OVCAR-3): < 10% | inhibition of growth at 10 µM (UO-31): < 10% | inhibition of growth at 10 µM (SNB-75): 12% | inhibition of growth at 10 µM (NCI-H460): 22% | inhibition of growth at 10 µM (HCT-15): 10% | inhibition of growth at 10 µM (BT-549): < 10% | inhibition of growth at 10 µM (CAKI-1): 13% | inhibition of growth at 10 µM (COLO 205): 15% | inhibition of growth at 10 µM (TK-10): < 10% | inhibition of growth at 10 µM (OVCAR-5): < 10% | inhibition of growth at 10 µM (LOX IMVI): 14% | inhibition of growth at 10 µM (PC-3): 14% | inhibition of growth at 10 µM (UACC-257): 17% | inhibition of growth at 10 µM (RXF 393): 10% | inhibition of growth at 10 µM (DU-145): < 10% | inhibition of growth at 10 µM (MDA-MB-231): 23% | inhibition of growth at 10 µM (MCF7): 23% | inhibition of growth at 10 µM (HCT-116): 13% | inhibition of growth at 10 µM (KM12): 11% | inhibition of growth at 10 µM (SK-OV-3): 20% | inhibition of growth at 10 µM (T47D): 44% | inhibition of growth at 10 µM (Malme-3M): 17% | inhibition of growth at 10 µM (SF-295): 12% | inhibition of growth at 10 µM (IGROV-1): 20% | inhibition of growth at 10 µM (SW-620): 10% | inhibition of growth at 10 µM (SNB-19): 22% | inhibition of growth at 10 µM (786-0): < 10% | inhibition of growth at 10 µM (MDA-MB-468): 29% | inhibition of growth at 10 µM (SK-MEL-5): 22% | inhibition of growth at 10 µM (HCC 2998): < 10% | inhibition of growth at 10 µM (NCI-H522): 22%

COc1ccc(NC(=O)CSc2nc3ccccc3c(=O)n2CCc2ccccc2)cc1
inhibition of growth at 10 µM (OVCAR-8): 40% | inhibition of growth at 10 µM (A498): < 10% | inhibition of growth at 10 µM (A549): 25% | inhibition of growth at 10 µM [1]: 15% | inhibition of growth at 10 µM (SF-539): 10% | inhibition of growth at 10 µM (MDA-MB-435): 10% | inhibition of growth at 10 µM (OVCAR-3): 10% | inhibition of growth at 10 µM (UO-31): < 10% | inhibition of growth at 10 µM (SNB-75): 72% | inhibition of growth at 10 µM (NCI-H460): 25% | inhibition of growth at 10 µM (HCT-15): < 10% | inhibition of growth at 10 µM (BT-549): 10% | inhibition of growth at 10 µM (CAKI-1): 13% | inhibition of growth at 10 µM (COLO 205): < 10% | inhibition of growth at 10 µM (TK-10): 10% | inhibition of growth at 10 µM (OVCAR-5): < 10% | inhibition of growth at 10 µM (LOX IMVI): < 10% | inhibition of growth at 10 µM (PC-3): < 10% | inhibition of growth at 10 µM (UACC-257): 14% | inhibition of growth at 10 µM (RXF 393): 21% | inhibition of growth at 10 µM (DU-145): < 10% | inhibition of growth at 10 µM (MDA-MB-231): 39% | inhibition of growth at 10 µM (MCF7): 11% | inhibition of growth at 10 µM (HCT-116): 13% | inhibition of growth at 10 µM (KM12): 16% | inhibition of growth at 10 µM (SK-OV-3): 25% | inhibition of growth at 10 µM (T47D): < 10% | inhibition of growth at 10 µM (Malme-3M): 40% | inhibition of growth at 10 µM (SF-295): 21% | inhibition of growth at 10 µM (IGROV-1): 18% | inhibition of growth at 10 µM (SW-620): 11% | inhibition of growth at 10 µM (SNB-19): 41% | inhibition of growth at 10 µM (786-0): < 10% | inhibition of growth at 10 µM (MDA-MB-468): 13% | inhibition of growth at 10 µM (SK-MEL-5): 10% | inhibition of growth at 10 µM (HCC 2998): < 10% | inhibition of growth at 10 µM (NCI-H522): < 10%
